In brackets after ≈: the same amount, converted by molar mass.
Assays:
[1] = test system: human liver carcinoma (HepG2) cells; test: Cytotoxicity, PrestoBlue cell viability assay; format: cell-based; conditions: at about 12 μM (6.5 μg/mL), positive control
Protocol: Cytotoxicity Assay. Human embryonic kidney cells (HEK293) and HepG2 cells were grown in Dulbecco's modified eagle's medium supplemented with 10% fetal bovine serum in a humidified […] incubator at 37° C. Equal number of cells (100 μl of media containing ˜8000 cells) were dispersed into 96-well plates and wells with medium but no cells were used as blanks. After incubating for 24 h, […] varying concentrations of test compounds (at twice the desired concentrations) were added to each well, including the blanks. The treated cells were then incubated further for 48 h, after which PrestoBlue reagent was added to each well. The plates were then incubated for an additional hour on a nutator mixer in a 5% CO2 incubator. The fluorescence was read at […] on a SpectraMax M2 plate reader (Molecular Devices, USA). Cell viability were interpreted as previously described (55, 77). The values of blank were subtracted from each value, and the viability values of the treated samples relative to the controls with vehicle were calculated. The values for the plots are the means±standard deviation.

[2] = test system: human embryo kidney (HEK293) cells; test: Cytotoxicity, PrestoBlue cell viability assay; format: cell-based; conditions: at about 12 μM (6.5 μg/mL), positive control
Protocol: Cytotoxicity Assay. Human embryonic kidney cells (HEK293) and HepG2 cells were grown in Dulbecco's modified eagle's medium supplemented with 10% fetal bovine serum in a humidified 5% atmospheric incubator at 37° C. […] The fluorescence was read at […] on a SpectraMax M2 plate reader (Molecular Devices, USA). […] The values of blank were subtracted from each value, and the viability values of the treated samples relative to the controls with vehicle were calculated. The values for the plots are the means±standard deviation.

[3] = test system: A. baumannii CAN-ICU 63169; test: MIC, microbroth dilution; format: cell-based; conditions: Acinetobacter baumannii, CANICU63169, standalone, read-out: MIC
Protocol: (§1) Antimicrobial Susceptibility Assay. The in vitro antimicrobial activity of all compounds/antibiotics against a panel of bacteria was evaluated by microbroth dilution method in accordance with the Clinical and Laboratory Standards Institute (CLSI) guidelines. Overnight grown bacterial cultures were diluted in saline to achieve a 0.5 McFarland turbidity, followed by 1:50 dilution in Mueller-Hinton broth (MHB) for inoculation to a final concentration of approximately 5×10^5CFU/mL. The antimicrobial agents were 2-fold serially diluted in MHB in a 96-well plate and incubated at 37° C. with equal volumes of inoculum for 18 h. The lowest concentration that prevented the visible growth of bacteria was defined as the MIC for each antimicrobial agent. The broth with or without bacterial cells was used as positive or negative control, respectively.

E. coli ATCC 25922 = test: MIC, microbroth dilution; format: cell-based; conditions: Escherichia coli, ATCC25922, standalone, read-out: MIC
Protocol: as §1

[4] = test system: E. coli CAN-ICU 61714 (GEN-R); test: MIC, microbroth dilution; format: cell-based; conditions: Escherichia coli, standalone, read-out: MIC
Protocol: as §1

[5] = test system: E. coli CAN-ICU 63074 (AMK 32); test: MIC, microbroth dilution; format: cell-based; conditions: Escherichia coli, standalone, read-out: MIC
Protocol: as §1

[6] = test system: E. coli CANWARD-2011 97615 (GEN-R, TOB-R, CIP-R) aac(3′)iia; test: MIC, microbroth dilution; format: cell-based; conditions: Escherichia coli
Protocol: as §1

E. faecalis ATCC 29212 = test: MIC, microbroth dilution; format: cell-based; conditions: Enterococcus faecalis, ATCC29212, standalone, read-out: MIC
Protocol: as §1

E. faecium ATCC 27270 = test: MIC, microbroth dilution; format: cell-based; conditions: Enterococcus faecium, ATCC27270, standalone, read-out: MIC
Protocol: as §1

MRSA ATCC 33592 = test: MIC, microbroth dilution; format: cell-based; conditions: Staphylococcus aureus, standalone, read-out: MIC
Protocol: as §1

[7] = test system: MRSE CAN-ICU 61589 (CAZ >32); test: MIC, microbroth dilution; format: cell-based; conditions: Staphylococcus epidermidis, standalone, read-out: MIC
Protocol: as §1

MSSE CANWARD-2008 81388 = test: MIC, microbroth dilution; format: cell-based; conditions: standalone, read-out: MIC
Protocol: as §1

S. aureus ATCC 29213 = test: MIC, microbroth dilution; format: cell-based; conditions: Staphylococcus aureus, ATCC29213, standalone, read-out: MIC
Protocol: as §1

[8] = test system: S. maltophilia CAN-ICU 62584; test: MIC, microbroth dilution; format: cell-based; conditions: Stenotrophomonas maltophilia, CANICU62584, standalone, read-out: MIC
Protocol: as §1

S. pneumoniae ATCC 49619 = test: MIC, microbroth dilution; format: cell-based; conditions: Streptococcus pneumoniae, ATCC49619, standalone, read-out: MIC
Protocol: as §1

P. aeruginosa ATCC 27853 = test: MIC, microbroth dilution; format: cell-based, Pseudomonas aeruginosa; conditions: Pseudomonas aeruginosa, ATCC27853, standalone, read-out: MIC
Protocol: as §1

[9] = test system: P. aeruginosa CAN-ICU 62308 (GEN-R); test: MIC, microbroth dilution; format: cell-based, Pseudomonas aeruginosa; conditions: Pseudomonas aeruginosa, standalone, read-out: MIC
Protocol: as §1

[10] = test system: P. aeruginosa CANWARD-2011 96846 (GEN-R, TOB-R); test: MIC, microbroth dilution; format: cell-based, Pseudomonas aeruginosa; conditions: Pseudomonas aeruginosa, standalone, read-out: MIC
Protocol: as §1

K. pneumoniae ATCC 13883 = test: MIC, microbroth dilution; format: cell-based, Klebsiella pneumoniae; conditions: Klebsiella pneumoniae, ATCC13883, standalone, read-out: MIC
Protocol: as §1

WT P. aeruginosa PAO1 = test: Checkerboard combination study / MIC; format: cell-based, Pseudomonas aeruginosa; conditions: for FICI in the presence of ≤10 μM of 1: antibiotic + compound 1; for FICI in the presence of ≤10 μM of 1 / MIC of Antibiotics in the presence of ≤10 μM of 1 / FICI in the presence of ≤10 μM of 2 / MIC of Antibiotics in the presence of ≤10 μM of 2 / FICI in the presence of ≤10 μM of 3 / MIC of Antibiotics in the presence of ≤10 μM of 3 / FICI with compounds 1-3: WT PAO1; for MIC of Antibiotics in the presence of ≤10 μM of 1: antibiotic + compound 1 ≤10 μM; for FICI in the presence of ≤10 μM of 2: antibiotic + compound 2; for MIC of Antibiotics in the presence of ≤10 μM of 2: antibiotic + compound 2 ≤10 μM; for FICI in the presence of ≤10 μM of 3: antibiotic + compound 3; for MIC of Antibiotics in the presence of ≤10 μM of 3: antibiotic + compound 3 ≤10 μM; for FICI with compounds 1-3: antibiotic + compounds 1-3 at ≤10 μM (≤16 μg/mL)
[11] = test system: MDR/XDR P. aeruginosa clinical isolates; test: MIC and checkerboard, panel of clinical isolates; format: cell-based, Pseudomonas aeruginosa
[12] = test system: panel of Gram-positive and Gram-negative bacteria; test: MIC, panel of Gram-positive and Gram-negative bacteria; format: cell-based; conditions: standalone; susceptible strains of the panel; read-out: MIC values against susceptible strains
Protocol: as §1

PA 91433 = test: Checkerboard combination study / MIC; format: cell-based, Pseudomonas aeruginosa; conditions: PA91433
PA 101243 = test: Checkerboard combination study / MIC; format: cell-based, Pseudomonas aeruginosa; conditions: PA101243
[13] = test system: Galleria mellonella larvae; test: Galleria mellonella tolerability study; conditions: 100 mg/kg; positive control
Protocol: In vitro and in vivo discordances have been observed in antimicrobial chemotherapy, thus, therapeutic efficacy may not necessarily be reliably extrapolated based on in vitro data alone. […] Colistin (100 mg/kg), an antibiotic well known for its toxicity towards eukaryotes, served as a positive control for this experiment while PBS served as negative control. […] Survivability was scored for a total of 4 days.
In vivo larvae-infection model. In vivo synergistic effects were determined using Galleria mellonella infection model, as previously described (20). Briefly, worms were purchased from The Worm Lady® Live Feeder (ON, Canada), stored in their natural habitat at 16° C., and used within 10 days of delivery. The worms (average weight of 250 mg) were used for tolerability and efficacy studies. Tolerability study was performed by injecting 10 μL of antimicrobial agents only at concentrations equivalent to 100 mg/kg or 200 mg/kg. The worms (ten in each group) were incubated at 37° C. and monitored for 96 h. […] Overnight grown culture of respective MDR P. aeruginosa isolate was standardized to 0.5 McFarland standard and diluted in PBS to a final concentration of […]. 10 μL of this solution (5 CFU) was injected into each worm and incubated for 3 h at 37° C. […] Worms treated with 10 μL PBS or high concentrations of test antibiotics served as negative and positive control, respectively. The worms were incubated at 37° C. in Petri dishes lined with filter paper and scored for survivability every 6 h for up to 48 h. This experiment was repeated to give a total of thirty worms (n=30) in each case. Survival data curves were plotted using Kaplan-Meier survival analysis.

Compound: COc1cccc2c1C(=O)c1c(O)c3c(c(O)c1C2=O)C[C@@](O)(C(=O)CO)C[C@@H]3O[C@H]1C[C@H](N)[C@H](O)[C@H](C)O1 [Doxorubicin]
- cell viability [1]: less than 10%
- cytotoxicity of cells reduced to [2]: less than 10%

Compound: NC[C@H]1O[C@H](O[C@H]2[C@H](O)[C@@H](O[C@H]3O[C@H](CO)[C@@H](O)[C@H](N)[C@H]3O)[C@H](N)C[C@@H]2N)[C@H](N)C[C@@H]1O [Tobramycin]
- MIC [3]: 32 mg/L (≈ 68.4 µM)
- MIC (E. coli ATCC 25922): 0.5 mg/L (≈ 1.07 µM)
- MIC [4]: 8 mg/L (≈ 17.1 µM)
- MIC [5]: 8 mg/L (≈ 17.1 µM)
- MIC [6]: 128 mg/L (≈ 274 µM)
- MIC (E. faecalis ATCC 29212): 8 mg/L (≈ 17.1 µM)
- MIC (E. faecium ATCC 27270): 16 mg/L (≈ 34.2 µM)
- MIC (MRSA ATCC 33592): 0.5 mg/L (≈ 1.07 µM)
- MIC [7]: 2 mg/L (≈ 4.28 µM)
- MIC (MSSE CANWARD-2008 81388): ≤ 0.25 mg/L
- MIC (S. aureus ATCC 29213): 0.5 mg/L (≈ 1.07 µM)
- MIC [8]: > 512 mg/L
- MIC (S. pneumoniae ATCC 49619): 2 mg/L (≈ 4.28 µM)
- MIC (P. aeruginosa ATCC 27853): 1 mg/L (≈ 2.14 µM)
- MIC [9]: 16 mg/L (≈ 34.2 µM)
- MIC [10]: 256 mg/L (≈ 548 µM)
- MIC (K. pneumoniae ATCC 13883): ≤ 0.25 mg/L
- MIC (WT P. aeruginosa PAO1; Pseudomonas aeruginosa, PAO1, 18 h, antibiotic alone, WT PAO1 (Table 2), read-out: MIC alone): 1 mg/L
- FICI in the presence of ≤10 μM of 1 (WT P. aeruginosa PAO1): 1.01
- MIC of Antibiotics in the presence of ≤10 μM of 1 (WT P. aeruginosa PAO1): 1 mg/L
- FICI in the presence of ≤10 μM of 2 (WT P. aeruginosa PAO1): 1.00
- MIC of Antibiotics in the presence of ≤10 μM of 2 (WT P. aeruginosa PAO1): 1 mg/L
- FICI in the presence of ≤10 μM of 3 (WT P. aeruginosa PAO1): 1.01
- MIC of Antibiotics in the presence of ≤10 μM of 3 (WT P. aeruginosa PAO1): 1 mg/L
- FICI with compounds 1-3 (WT P. aeruginosa PAO1): 1
- FICI with aztreonam or meropenem (WT P. aeruginosa PAO1; tobramycin + aztreonam or meropenem, WT): 0.75-1.00
- FICI with aztreonam or meropenem ([11]; tobramycin-resistant MDR/XDR isolates): 0.56-0.75
- FICI with aztreonam or meropenem ([11]; tobramycin-susceptible MDR): 0.75
- MIC [12]: ≤ 2 mg/L

Compound: Colistin
- FICI in the presence of ≤10 μM of 1 (WT P. aeruginosa PAO1): 2.00
- MIC of Antibiotics in the presence of ≤10 μM of 1 (WT P. aeruginosa PAO1): 2 mg/L
- FICI in the presence of ≤10 μM of 2 (WT P. aeruginosa PAO1): 2.00
- MIC of Antibiotics in the presence of ≤10 μM of 2 (WT P. aeruginosa PAO1): 2 mg/L
- FICI in the presence of ≤10 μM of 3 (WT P. aeruginosa PAO1): 1.02
- MIC of Antibiotics in the presence of ≤10 μM of 3 (WT P. aeruginosa PAO1): 1 mg/L
- FICI with compounds 1-3 (WT P. aeruginosa PAO1): 2
- MIC alone (WT P. aeruginosa PAO1; antibiotic alone, WT PAO1 (Table 2)): Colistin (1) μg/ml
- MIC of colistin (PA 91433): 4 mg/L
- MIC of colistin (PA 101243): 1024 mg/L
- survival of larvae [13]: 30%
